row,SMILES,melting point [°C]
1,CCN(CC)c1ccc(C(=O)c2c(Cl)c(Cl)c(Cl)c(Cl)c2C(=O)O)c(C)c1,179 to 181
2,Cc1cc(C2=NO[C@@](c3cc(Cl)c(F)c(Cl)c3)(C(F)(F)F)C2)ccc1C(=O)NC1CS(=O)(=O)C1,134 to 136
3,Cc1nnc(CNC(=O)CNC(=O)CN)n1-c1ccc(Cl)cc1C(=O)c1ccccc1Cl,60 to 65
4,O=C(Nc1ccc(/C=C/CO)c(F)c1)OCc1ccccc1,105 to 106
5,O=C(c1cc(Cl)ccc1Cl)N1CCNC1=Nc1ccc(Cl)cc1Cl,205 to 206
6,CS(=O)(=O)C(C(=O)OCc1ccccc1)(C(=O)OCc1ccccc1)N1C(=O)C(NC(=O)Cc2ccccc2)C1CN=[N+]=[N-] (stereo not drawn),114 to 115
7,O=C1N=C(c2ccccc2OCC2CC2)N=C2N=CN=C12,259 to 260
8,COc1c(-c2cc3c(s2)C(O)CCC3)ccc2c(=O)c(C(=O)O)cn(C3CC3)c12 (stereo not drawn),238 to 240
9,CCC=C(c1ccccc1N1CCCCC1)C(C(N)=O)c1ccc(C(=O)OCC)cc1 (stereo not drawn),115 to 117
10,CCCCCCCCCCCCCCCCOC(=O)c1ccc(-c2nnn[nH]2)nc1,139 to 140
11,O=C(O)CCCC=C(c1ccccc1)c1ccccc1,111 to 112
12,COc1cc2c(c(-c3cccc(Cl)c3Cl)c1)OC(CN)C2 (stereo not drawn),159 to 161
13,CCN(c1ccc(C#N)cc1)S(=O)(=O)c1ccc(C)cc1,85.4 to 86.6
14,N#Cc1nn(-c2c(Cl)cccc2Cl)c(N)c1-c1ccco1,223
15,CN(c1cccc2cc(-c3nccs3)[nH]c12)S(=O)(=O)c1ccsc1CS(C)(=O)=O,253
16,COc1ccc(-n2cc(C(=O)O)c(=O)c3cc(F)c(F)c(F)c32)cc1,252 to 254
17,O=[N+]([O-])c1cc(Cl)c(Cl)cc1-n1cccc1,69.5 to 70.5
18,Cc1cc(C#N)cc(C)c1Oc1cc(Cl)nc(Cl)n1,208 to 210
19,O=C1C2=C(OCCO2)C(=O)c2cc(Cl)ccc21,209 to 210
20,O=C1c2ccccc2C(=O)N1CC(=O)N1c2ccccc2N(Cc2ccc(O)cc2)C(=O)[C@H]2CCC[C@H]21 (relative stereo),264 to 267
21,CC(C)C(=O)N[C@@H](CSC(=O)c1ccccc1)C(=O)NCCSC(=O)C(C)(C)C,123 to 124
22,COc1cc2c(cc1OC)C(c1sc(O)nc1C)=NCC2,114 to 120

# Now from value to molecule:
row,melting point [°C],SMILES
1,144 to 146,CC1=C(c2ccncc2)SC(C)C(=O)N1 (stereo not drawn)
2,312 to 314,N#Cc1cc(-c2c(-c3ccccc3)nn3ccccc23)c[nH]c1=O
3,124 to 125,OCc1conc1-c1ccc(Cl)c(F)c1
4,109 to 110,CC(C)(C)c1ncc2cc(Cl)nc(Cl)n12
5,111 to 112,CCCCN(CC)CC(=O)OC1CC2(C)C(C(C)=O)CCC2C2CCC3CC(O)CCC3(C)C12 (stereo not drawn)
6,93.6,O=C1CC(c2cccc(Cl)c2)c2cc(C(c3ccc(Cl)cc3)n3ccnc3)cc3c2N1CCC3 (stereo not drawn)
7,109,Cn1cncc1CC(=O)c1ccc(Br)cc1
8,102 to 109,Cc1noc(NS(=O)(=O)c2ccccc2-c2ccc(-c3ncco3)cc2/C=C/c2ccccc2)c1C
9,221 to 223,COc1ccc(S(=O)(=O)N2CCN(C(=O)c3ccc(Nc4ccnc5cc(C(F)(F)F)ccc45)cc3)CC2)cc1
10,270 to 273,CC1CCc2c3c(cc4ccccc24)C(=O)C(C(=O)O)CN31 (stereo not drawn)
11,202 to 203,Cn1c(=O)n(CCC[C@@H](NS(=O)(=O)c2ccc(-c3ccccc3)cc2)C(=O)NO)c(=O)c2ccccc21
12,138 to 140,COc1cc(C(C)=O)ccc1OCCCN1CCN(c2nn(C(=O)c3ccccc3)c3cc(F)ccc23)CC1
13,210 to 211,CCc1c(OC)nc2nc(-c3nnc(C(F)(F)F)o3)cn2c1C
14,98 to 99,CNC(=O)COc1cc(C(F)(F)F)cc(C(F)(F)F)c1
15,175 to 177,Cc1ccc(C(O)(Cc2nnnn2C)c2ccc(C)cc2C)c(C)c1
16,73 to 74,CCN(CC)c1nc(C#N)c(C#N)nc1Cc1ccccc1

# From a melting point compilation (Tetko et al.; mined from patent text by program, amines drawn as free bases though some values may be those of a salt)
